We go through 27 compounds from ChEMBL document CHEMBL4495565, “Cytopathic SARS-Cov2 screening on VERO-E6 cells in a large repurposing effort” (2020).

Several values for one entry are separate records, joined by “and”; a condition that tells them apart may be missing. Equal entries are not always repeated. Structures can show the parent of a compound that is named as a salt.

System in the first data set: not listed separately
Description: in vitro. Particulars: chlorocebus sabaeus, VERO-E6 cells (Vero C1008), uninfected, CC50.
In turn, `COc1cc2c(NC3CCN(C4CCCCC4)CC3)nc(N3CCCN(C(C)C)CC3)nc2cc1OCCCN1CCCCC1` yielded a CC50 at 48 h of over 33 µM.

In the case of `O=C(c1c2ccccc2cc2ccccc12)N1CCC(N2CCC[C@@H](C(=O)N3CCOCC3)C2)CC1`, the CC50 at 48 h came out at 10.2 µM.

Another data set has as its system SARS-CoV-2. Description: microbe, parasite or virus in culture. It counts as functional, organism-based, Chlorocebus sabaeus, Vero C1008. The note with it: Severe acute respiratory syndrome coronavirus 2, Vero C1008, 48 h.
A word on the IC50: it is the point on the concentration scale where inhibition reaches its midpoint. A higher IC50 goes with weaker potency in that assay. Take `CNC(=O)c1cc(Oc2ccc(NC(=O)Nc3ccc(Cl)c(C(F)(F)F)c3)c(F)c2)ccn1` [REGORAFENIB]: the IC50 was over 33 µM.

`COc1ccc(-c2cc3c(C)nc(N)nc3n([C@H]3CC[C@H](OCCO)CC3)c2=O)cn1` [PF-04691502] registered an IC50 of 0.55 µM.

The same data set, now with this note: vero c1008.
As for `CC(C)(C)c1cc(C=C(C#N)C#N)cc(C(C)(C)C)c1O` [TYRPHOSTIN A9], the IC50 was over 33 µM.

In turn, `CNC(=O)c1cc(Oc2ccc(NC(=O)Nc3ccc(Cl)c(C(F)(F)F)c3)c(F)c2)ccn1` [REGORAFENIB] had an IC50 of 24.9 µM.

Compound `CNCc1ccc(-c2cc(-c3nc(-c4ccc(S(=O)(=O)C(C)C)cc4)cnc3N)on2)cc1` [BERZOSERTIB] registered an IC50 of 3.54 µM.

`COc1ccc(-c2cc3c(C)nc(N)nc3n([C@H]3CC[C@H](OCCO)CC3)c2=O)cn1` [PF-04691502] showed an IC50 of 0.8 µM.

As to `COc1cc2c(NC3CCN(C4CCCCC4)CC3)nc(N3CCCN(C(C)C)CC3)nc2cc1OCCCN1CCCCC1`, the IC50 was over 33 µM.

For a further data set, the system named is Vero C1008.
Experiment: not given
Particulars: chlorocebus sabaeus, vero c1008, 48 h.
Regarding `CC(C)(C)c1cc(C=C(C#N)C#N)cc(C(C)(C)C)c1O` [TYRPHOSTIN A9], the CC50 was 7.99 µM and 1.27 µM.

As to `CNC(=O)c1cc(Oc2ccc(NC(=O)Nc3ccc(Cl)c(C(F)(F)F)c3)c(F)c2)ccn1` [REGORAFENIB], the CC50 was > 33 µM and 8.31 µM.

On to `CNCc1ccc(-c2cc(-c3nc(-c4ccc(S(=O)(=O)C(C)C)cc4)cnc3N)on2)cc1` [BERZOSERTIB], for which the CC50 was 10 µM and > 33 µM.

`CC(=O)[C@]1(O)Cc2c(O)c3c(c(O)c2[C@@H](O[C@H]2C[C@H](N)[C@H](O)[C@H](C)O2)C1)C(=O)c1ccccc1C3=O` [IDARUBICIN HYDROCHLORIDE] yielded a CC50 of 0.41 µM.

For the compound `COc1ccc(-c2cc3c(C)nc(N)nc3n([C@H]3CC[C@H](OCCO)CC3)c2=O)cn1` [PF-04691502], the CC50 is 0.32 µM and 0.09 µM.

Compound `CC(=O)[C@]1(O)Cc2c(O)c3c(c(O)c2[C@@H](O[C@H]2C[C@H](N)[C@H](O)[C@H](C)O2)C1)C(=O)c1ccccc1C3=O` [IDARUBICIN] came in with a CC50 of 0.2 µM.

For the compound `COc1cc2c(NC3CCN(C4CCCCC4)CC3)nc(N3CCCN(C(C)C)CC3)nc2cc1OCCCN1CCCCC1`, the CC50 amounted to 18.6 µM.

As for `O=C(c1c2ccccc2cc2ccccc12)N1CCC(N2CCC[C@@H](C(=O)N3CCOCC3)C2)CC1`, the CC50 turned out to be 10.9 µM.

The subject of the next data set is SARS-CoV-2.
Experiment: not given
The note with it: Chlorocebus sabaeus; Vero C1008; 10 uM.
What is called inhibition is the change of the read-out against control, counted positive when it falls. For Sodium orthovanadate, the inhibition came out at 0.13%.

As to NYSTATIN, the inhibition came to 0.08%.

Consider GADOTERIDOL, for which the inhibition is -0.08%.

Consider MERBROMIN, for which the inhibition is 0%.

For CETRIMONIUM BROMIDE, the inhibition is 0.3%.

On to Auranofin, for which the inhibition is -0.39%.

VANADATE ION: the inhibition worked out at 0.02%.

In the case of CYANOCOBALAMIN, the inhibition came to 0.04%.

With hemin, the inhibition was -0.12%.

For the compound VITAMIN E, the inhibition is 0.25% (2×) and -0.04% (2×).

On to PHENYLMERCURIC ACETATE, for which the inhibition is -0.23%.

With `Cc1cc(Nc2cc(N3CCN(C)CC3)nc(Sc3ccc(NC(=O)C4CC4)cc3)n2)n[nH]1`, the inhibition was determined as 0.28%.

As for `CC(=O)OC[C@]12CCC(C)=C[C@H]1O[C@@H]1[C@H](O)[C@@H](OC(C)=O)[C@@]2(C)[C@@]12CO2`, the inhibition was -0.2%.

Turning to COLISTIMETHATE SODIUM, the inhibition was -0.25%.

On to ACRIFLAVINE HYDROCHLORIDE, for which the inhibition is -0.35%.

In the case of Vitamin B12, the inhibition was 0.12%.

For ESCIN, the inhibition was -0.23%.

For the compound TOCOFERSOLAN, the inhibition was 41.8%.

Take AUROTHIOGLUCOSE: the inhibition is -0.05%.
